According to patent publication US20170112858A1, “Extended Release Aspirin” (New Haven Pharmaceuticals, Inc., priority 2015, published 2017):

Columns and labels:
Assay type in all cases: in vivo, human
serum TxB2 production = experiment: Single dose inhibition of serum TxB2 production in healthy adults (enzyme immunoassay); details: highest doses: ER ASA 81, 162.5, 325 mg; IR ASA 40, 81 mg
Experimental: (§1) Healthy adults were randomized to receive single doses of extended release ASA (“ER ASA”) at a dosage of 20 mg, 40 mg, 81 mg, 162.5 mg ER ASA (Durlaza®; New Haven Pharmaceuticals, Inc., North Haven, Conn.), or 325 mg, or immediate release ASA (“IR ASA”; aspirin powder USP; Letco Medical, Decatur, Ala.) at a dosage of 5 mg, 10 mg, 20 mg, 40 mg or 81 mg. […] For pharmacodynamic assessments, serum 11-dehydro-thromboxane (“TxB2”, a stable metabolite of thromboxane A2) levels were assessed using a validated enzyme immunoassay kit in serial blood samples collected 1 hour before dosing and at 0.5, 1, 2, 4, 8, 16, and 24 hours after drug administration.

platelet aggregation = experiment: Light transmittance aggregometry (LTA), AA-, collagen-, ADP-induced, in type II diabetes subjects with vascular disease or CVD risk factors; details: trough
Experimental: High platelet reactivity has previously been implicated in incomplete inhibition during therapy with immediate release low-dose aspirin in patients with type II diabetes. The main study consisted of a run-in phase where subjects were administered 81 mg, everyday (“QD”), of immediate release acetylsalicylic acid (“IR ASA”) for 7-28 days. […] For this study the trough level data are from the following timepoints: (1) for 81 mg—the data at Visit 2; […]

[1] = system: 2, 3-dinor-6-keto-PGF1α (prostacyclin); experiment: Excretion of prostacyclin metabolite, urine GC/MS (Example 3)
Experimental: (§2) Subjects of Group 1 were randomly administered a placebo, 81 mg IR ASA and 162.5 mg IR ASA. Subjects of Group 2 were randomly administered a placebo, 81 mg ER ASA and 162.5 mg ER ASA (Durlaza®). Each subject was prohibited from taking any aspirin for two weeks prior to being administered the randomly chosen drug daily for 1 week followed by a urine collection 24 hours after dosing. This protocol was repeated two additional times. For each urine collection TxB2 and 2, 3-dinor-6-keto-PGF1α (“prostacyclin”) levels were measured using gas chromatography-mass spectrometry (“GC/MS”). Statistical analysis was done using Wilcoxon rank sum test for continuous variables and the Pearson test for categorical variables.

TxB2 = experiment: Excretion of thromboxane metabolite, urine GC/MS (Example 3)
Experimental: as §2

endothelial function = experiment: Reactive hyperemia index (ENDOPAT pulsatile arterial tonometry)
Experimental: Endothelial function was assessed using the ENDOPAT system ([…] Medical, Israel), a pulsatile arterial tonometry-based diagnostic device, at Visit 2, Visit 3, Visit 5, and Visit 6 predose. The reactive hyperemia index (“RHI”), a measure of endothelial function, and the augmentation index (“AI”), a measure of arterial stiffness, were determined. Endothelial dysfunction is defined as RHI <1.67. Normal arterial stiffness is defined as an AI -30% to -10%, increased arterial stiffness as an AI >-10% to 10%, and abnormal arterial stiffness as an AI >10%. The RHI measures vessel pliability which is a surrogate for nitric oxide production. The production of nitric oxide inhibits platelet aggregation. Thus, determining nitric oxide production following Durlaza® dosing is important to understanding its affect on platelet inhibition.

[2] = system: High Sensitive C-Reactive Protein (hs-CRP); experiment: High Sensitive C-Reactive Protein test (Immulite 2000 Xpi)
Experimental: Subjects were also measured for high sensitive C-reactive protein (“hs-CRP”) levels at Visit 1, Visit 2, Visit 3 pre-dose, Visit 3 at 24 hours, Visit 6 pre-dose and Visit 6 at 24 hours.
High Sensitive C-Reactive Protein (“hs-CRP”) was measured using a Seimens Immulite 2000® Xpi analyzer (Immulite 2000 is a registered trademark of Siemens Healthcare Diagnostic, Inc.), prior to 162.5 mg ER ASA (Durlaza®) dosing at Visit 2 pre-dose, at Visit 3 pre-dose and Visit 3 at 24-hr post-dose for the 162.5 mg ER ASA (Durlaza®) dose, and at Visit 6 pre-dose and Visit 6 at 24-hr post-dose for the 325 mg ER ASA dose.

[3] = Single dose ASA pharmacokinetics in healthy adults (serial blood samples)
Experimental: as §1

[4] = Visit 2, 81 mg IR QD (vs. Visit 3 pre dose)
[5] = Visit 2, 81 mg IR QD (vs. Visit 6 pre dose)

CC(=O)Oc1ccccc1C(=O)O [IR ASA, acetylsalicylic acid]
single dose inhibition of TxB2 production (serum TxB2 production): maintained during a 24-hour period
LTA (%) 2 mM AA (Final), first line so headed (platelet aggregation; [4]): 5 ± 12%
LTA (%) 2 mM AA (Final), second line so headed (platelet aggregation; [4]): 6 ± 13%
LTA (%) 2 mM AA (Final), first line so headed (platelet aggregation; [5]): 3 ± 2%
LTA (%) 2 mM AA (Final), second line so headed (platelet aggregation; [5]): 3 ± 2%
Bradykinin-stimulated prostacyclin levels, over placebo ([1]; 81 mg daily): significantly reduced
Bradykinin-stimulated prostacyclin levels, over placebo ([1]; 162.5 mg daily): significantly reduced
Bradykinin-stimulated TxB2 levels 4 hours post-dosing, over placebo (TxB2; 81 mg daily): significantly reduced
Basal urinary TxB2 levels 24 hours post-dosing, over placebo (TxB2; 81 mg daily for 1 week): significantly reduced
Bradykinin-stimulated TxB2 levels 4 hours post-dosing, over placebo (TxB2; 162.5 mg daily): significantly reduced
Basal urinary TxB2 levels 24 hours post-dosing, over placebo (TxB2; 162.5 mg daily for 1 week): significantly reduced
dose dependence of the effect on TxB2 synthesis (TxB2; 81 vs 162.5 mg): not seen
subjects with RHI < 1.67 (n, %) (endothelial function; HPT Group, Visit 5, 81 mg IR ASA QD): 4 (44) n, %
subjects with RHI < 1.67 (n, %) (endothelial function; Visit 2, 81 mg IR ASA QD): 11 (27.5) n, %
subjects with hs-CRP >3 mg/L (n, %) ([2]; V2 pre-dose, 81 mg IR ASA): 23 (57) n, %
patients meeting the criteria for elevated CRP ([2]; during 81 mg IR ASA therapy, total study population): 47%
time required to reach the maximum concentration of ASA ([3]; all doses, single dose): 1 to 2 h
AUClast of ASA ([3]; single dose 40 mg): 384 ng·h/mL
AUClast of ASA ([3]; single dose 81 mg): 865 ng·h/mL
